Each compound was assayed against T1, LPA1R (Homo sapiens, UniProt Q92633) (assay: LPA1R Ca2+ flux functional assay (antagonist mode, FLIPR)). Settings: inhibition of LPA-stimulated Ca2+ flux, LPA at EC80, LPA1R expressing cells (Millipore); read-out: LPA1 R Antagonist Activity.
T1 construct: host or cells: LPA1R expressing cells (Millipore, GPCR Profiler)
T1 sequence (Q92633 whole entry): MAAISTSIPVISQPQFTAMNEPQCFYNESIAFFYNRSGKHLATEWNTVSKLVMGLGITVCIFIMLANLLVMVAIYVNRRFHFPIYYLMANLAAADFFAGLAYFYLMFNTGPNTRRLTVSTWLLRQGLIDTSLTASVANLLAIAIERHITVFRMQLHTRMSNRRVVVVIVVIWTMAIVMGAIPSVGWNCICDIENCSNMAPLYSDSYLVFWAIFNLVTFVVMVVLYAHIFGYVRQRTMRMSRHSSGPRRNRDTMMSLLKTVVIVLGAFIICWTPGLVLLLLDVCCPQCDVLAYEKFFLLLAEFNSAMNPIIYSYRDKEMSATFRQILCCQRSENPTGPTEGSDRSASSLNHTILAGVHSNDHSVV
Format: cell-based
Description: Inhibition of LPA-stimulated Ca^2+ flux was used to assess compound potency using FLIPR technology in a 96 well plate format. The assay buffer used was a modified Hanks Balanced Salt Solution (HBSS) where HBSS was supplemented to contain 20 mM HEPES and 2.5 mM Probenecid at pH7.4 (Millipore, GPCR Profiler®). LPA1R expressing cells (Millipore) were plated and prepared 24 hours prior to assay of test articles. Ca^2+ ion flux was assessed from fluorescence of a Fluo-based No Wash Ca^2+ dye. Antagonist data are generated from plates with LPA concentrations sufficient to generate 80% efficacy [EC80]. Percentage inhibition was calculated from a reduction of efficacy according to concentration of compounds of Formula I-VI. For dose responses the inhibition data was used to calculate compound IC50. The agonist assay was conducted on a FLIPR^TETRA instrument where the test compound(s), vehicle controls, and reference agonist were added to the assay plate after a fluorescence baseline was established. The agonist assay was a total of 180 seconds and was used to assess each compound's ability to activate each GPCR assayed. Upon completion of the agonist assay, the assay plate was removed from the FLIPR^TETRA and incubated at 25° C. for seven (7) minutes. After the incubation period, the assay plate was placed back in the FLIPR^TETRA and the antagonist assay was initiated. Using EC80 potency values determined during the agonist assay, all pre-incubated sample compound wells were challenged with EC80 concentration of reference agonist after establishment of a fluorescence baseline. The antagonist assay was conducted using the same assay plate that was used for the agonist assay. The antagonist assay was conducted on a FLIPR^TETRA instrument where 9 vehicle controls and EC80 concentration of reference agonist were added to appropriate wells. The antagonist assay was a total of 180 seconds and was used to assess each compound's ability to inhibit each GPCR assayed. All assay plate data were subjected to appropriate baseline corrections. After baseline corrections were applied, maximum fluorescence values were exported and data processed to calculate percentage activation (relative to Emax reference agonist and vehicle control values), percentage inhibition (relative to EC80 and vehicle control values), and additional statistical values (i.e. Z′, percentage variation between replicate data values) to assess the quality of each plate. Where assay plate data were rejected, additional experiments were conducted. All dose response curves were generated using GraphPad Prism. The curves were fit by utilizing “Sigmoidal Dose Response (Variable Slope)” equation where the bottom parameter was fixed to “0.” Where appropriate, the top parameter was fixed to “100” to better predict potency values when a full curve was not generated by the concentrations assayed.
With `Cc1noc(-c2ccc(C(=O)N[C@H](Cc3ccc(F)c(F)c3)C(=O)O)cc2)c1NC(=O)O[C@H](C)c1ccccc1Cl` [Example 23, (R)-2-(4-{4-[(R)-1-(2-Chloro-phenyl)-ethoxycarbonylamino]-3-methyl-isoxazol-5-yl}-benzoylamino)-3-(3,4-difluoro-phenyl)-propionic Acid] the IC50 was < 300 nM. `C[C@@H](OC(=O)Nc1c(C(F)(F)F)cnn1-c1ccc(-c2ccc(C3(C(=O)O)CC3)cc2)cc1)c1ccccc1` [Example 54, (R)-1-{4′-[5-(1-Phenyl-ethoxycarbonylamino)-4-trifluoromethyl-pyrazol-1-yl]-biphenyl-4-yl}-cyclopropanecarboxylic Acid] gave an IC50 of 300 to 1000 nM. In the case of `Cc1ccc(C[C@@H](NC(=O)c2ccc(-c3onc(C)c3NC(=O)O[C@H](C)c3ccccc3Cl)cc2)C(=O)O)cc1` [Example 27, (R)-2-(4-{4-[(R)-1-(2-Chloro-phenyl)-ethoxycarbonylamino]-3-methyl-isoxazol-5-yl}-benzoylamino)-3-p-tolyl-propionic Acid], the IC50 is reported as < 300 nM. `Cc1noc(-c2ccc(CN[C@H](Cc3ccccc3Cl)C(=O)O)cc2)c1NC(=O)O[C@H](C)c1ccccc1Cl` [Example 40, (R)-3-(2-Chloro-phenyl)-2-(4-{4-[(R)-1-(2-chloro-phenyl)-ethoxycarbonylamino]-3-methyl-isoxazol-5-yl}-benzylamino)-propionic Acid] was tested, and the IC50 was < 300 nM. For `Cc1noc(-c2ccc(C(=O)N[C@H](Cc3ccccc3Cl)C(=O)O)cc2)c1NC(=O)O[C@H](C)c1ccccc1Cl` [Example 24, (R)-3-(2-Chloro-phenyl)-2-(4-{4-[(R)-1-(2-chloro-phenyl)-ethoxycarbonylamino]-3-methyl-isoxazol-5-yl}-benzoylamino)-propionic Acid], the IC50 was < 300 nM. In the case of `Cc1noc(-c2ccc(CNC(Cc3ccccc3F)C(=O)O)cc2)c1NC(=O)OC(C)c1ccccc1Cl` [Example 38, (R)-2-(4-{4-[(R)_1-(2-Chloro-phenyl)-ethoxycarbonylamino]-3-methyl-isoxazol-5-yl}-benzylamino)-3-(2-fluoro-phenyl)-propionic Acid], the IC50 is reported as < 300 nM. In the case of `Cc1noc(-c2ccc(C(=O)N[C@H](C(=O)O)c3ccccc3)cc2)c1NC(=O)OC(C)c1ccccc1Cl` (mixture of isomers) [Example 3, 2-(S)-(4-{4-[(R,S)-1-(2-Chloro-phenyl)-ethoxycarbonylamino]-3-methyl-isoxazol-5-yl}-benzoylamino) Phenyl Acetic Acid], the IC50 is reported as > 50000 nM. `C[C@@H](OC(=O)Nc1ccnn1-c1ccc(-c2ccc(C3(C(=O)O)CC3)cc2)nc1)c1ccccc1` [Example 56, (R)-1-(4-{5-[5-(1-Phenyl-ethoxycarbonylamino)-pyrazol-1-yl]-pyridin-2-yl}-phenyl)-cyclopropanecarboxylic Acid] was tested, and the IC50 was < 300 nM. `Cc1noc(-c2ccc(C(=O)N[C@H](Cc3ccccc3)C(=O)O)cc2)c1NC(=O)O[C@H](C)c1ccccc1` [Example 5, 2(R)-[[4-[3-methyl-4-((R)-1-phenylethoxycarbonylamino)isoxazol-5-yl]benzoyl]amino]-3-phenyl-propanoic Acid] was tested, and the IC50 was < 300 nM. `Cc1noc(-c2ccc(CN[C@H](CC3CC3)C(=O)O)cc2)c1NC(=O)O[C@H](C)c1ccccc1` [Example 34, (R)-3-Cyclopropyl-2-{4-[3-methyl-4-((R)-1-phenyl-ethoxycarbonylamino)-isoxazol-5-yl]-benzylamino}-propionic acid] was tested, and the IC50 was < 300 nM. For `Cc1noc(-c2ccc(COC(Cc3ccccc3)C(=O)O)cc2)c1NC(=O)O[C@H](C)c1ccccc1` (stereo partly drawn) [Example 42, 2-{4-[3-Methyl-4-((R)-1-phenyl-ethoxycarbonylamino)-isoxazol-5-yl]-benzyloxy}-3-phenyl-propionic Acid], the IC50 was < 300 nM. In the case of “(R)-2-(4-{4-[(R)-1-(2-Chloro-phenyl)-ethoxycarbonylamino]-3-methyl-isoxazol-5-yl}-benzoylamino)-3-phenyl-propionic Acid [Example 20]”, the IC50 is reported as < 300 nM. For `Cc1noc(-c2ccc(C(=O)N[C@H](Cc3ccc(F)cc3)C(=O)O)cc2)c1NC(=O)O[C@H](C)c1ccccc1Cl` [Example 21, (R)-2-(4-{4-[(R)-1-(2-Chloro-phenyl)-ethoxycarbonylamino]-3-methyl-isoxazol-5-yl}-benzoylamino)-3-(4-fluoro-phenyl)-propionic Acid], the IC50 was < 300 nM. For `Cc1noc(-c2ccc(C(=O)N[C@@H](Cc3ccccc3)C(=O)O)cc2)c1NC(=O)O[C@@H](C)c1ccccc1` [Example 19, (S)-2-{4-[3-Methyl-4-((S)-1-phenyl-ethoxycarbonylamino)-isoxazol-5-yl]-benzoylamino}-3-phenyl-propionic Acid], the IC50 was > 50000 nM. For `C[C@@H](OC(=O)Nc1c(F)cnn1-c1ccc(-c2ccc(C3(C(=O)O)CC3)cc2F)cc1)c1ccccc1Cl` [Example 50, (R)-1-(4′-{5-[1-(2-Chloro-phenyl)-ethoxycarbonylamino]-4-fluoro-pyrazol-1-yl}-2-fluoro-biphenyl-4-yl)-cyclopropanecarboxylic Acid], the IC50 was < 300 nM. In the case of `Cc1noc(-c2ccc(C(=O)N[C@H](Cc3ccc(Cl)cc3)C(=O)O)cc2)c1NC(=O)O[C@H](C)c1ccccc1Cl` [Example 22, (R)-3-(4-Chloro-phenyl)-2-(4-{4-[(R)-1-(2-chloro-phenyl)-ethoxycarbonylamino]-3-methyl-isoxazol-5-yl}-benzoylamino)-propionic Acid], the IC50 is reported as < 300 nM. `Cc1noc(-c2ccc(C(=O)N[C@H](Cc3ccc(C#N)cc3)C(=O)O)cc2)c1NC(=O)O[C@H](C)c1ccccc1Cl` [Example 29, (R)-2-(4-{4-[(R)-1-(2-Chloro-phenyl)-ethoxycarbonylamino]-3-methyl-isoxazol-5-yl}-benzoylamino)-3-(4-cyano-phenyl)-propionic Acid] gave an IC50 of 1000 to 50000 nM. With `Cc1c(NC(=O)O[C@H](C)c2ccccc2)c(-c2ccc(C(=O)N[C@H](Cc3ccccc3)C(=O)O)cc2)nn1C` [Example 8, (R)-2-[[4-[1,5-dimethyl-4-((R)-1-phenylethoxycarbonylamino)pyrazol-3-yl]benzoyl]amino]-3-phenyl-propanoic Acid] the IC50 was > 50000 nM. With `Cc1nn(C)c(-c2ccc(C(=O)N[C@H](Cc3ccccc3)C(=O)O)cc2)c1NC(=O)O[C@H](C)c1ccccc1` [Example 7, (R)-2-[[4-[2,5-dimethyl-4-((R)-1-phenylethoxycarbonylamino)pyrazol-3-yl]benzoyl]amino]-3-phenyl-propanoic Acid] the IC50 was > 50000 nM. In the case of `C[C@@H](OC(=O)Nc1c(F)cnn1-c1ccc(-c2ccc(C3(C(=O)O)CC3)cc2Cl)cc1)c1ccccc1Cl` [Example 51, (R)-1-(2-Chloro-4′-{5-[1-(2-chloro-phenyl)-ethoxycarbonylamino]-4-fluoro-pyrazol-1-yl}-biphenyl-4-yl)-cyclopropanecarboxylic Acid], the IC50 is reported as < 300 nM. For `Cc1noc(-c2ccc(CN[C@H](Cc3ccccc3Cl)C(=O)O)cc2)c1NC(=O)O[C@H](C)c1ccccc1` [Example 35, (R)-3-(2-Chloro-phenyl)-2-{4-[3-methyl-4-((R)-1-phenyl-ethoxycarbonylamino)-isoxazol-5-yl]-benzylamino}-propionic Acid], the IC50 was < 300 nM. Compound `Cc1c(NC(=O)O[C@H](C)c2ccccc2)c(-c2ccc(-c3ccc(C4(C(=O)O)CC4)cc3)cc2)nn1C` [Example 47, (R)-1-[4-[4-[1,5-dimethyl-4-(1-phenylethoxycarbonylamino)pyrazol-3-yl]phenyl]phenyl]cyclopropane Carboxylic Acid] has an IC50 of 300 to 1000 nM. Work on `Cc1nn(C)c(-c2ccc(-c3ccc(C4(C(=O)O)CC4)cc3)cc2)c1NC(=O)O[C@H](C)c1ccccc1` [Example 48, (R)-1-[4-[4-[2,5-dimethyl-4-(1-phenylethoxycarbonylamino)pyrazol-3-yl]phenyl]phenyl]cyclopropane Carboxylic Acid] yielded an IC50 of 1000 to 50000 nM. `C[C@@H](OC(=O)Nc1c(C(F)(F)F)cnn1-c1ccc(-c2ccc(C3(C(=O)O)CC3)cc2F)cc1)c1ccccc1` [Example 55, (R)-1-{2-Fluoro-4′-[5-(1-phenyl-ethoxycarbonylamino)-4-trifluoromethyl-pyrazol-1-yl]-biphenyl-4-yl}-cyclopropanecarboxylic Acid] was tested, and the IC50 was 300 to 1000 nM. In the case of `Cc1noc(-c2ccc(CN[C@H](Cc3ccc(Cl)cc3)C(=O)O)cc2)c1NC(=O)O[C@H](C)c1ccccc1` [Example 36, (R)-3-(4-Chloro-phenyl)-2-{4-[3-methyl-4-((R)-1-phenyl-ethoxycarbonylamino)-isoxazol-5-yl]-benzylamino}-propionic Acid], the IC50 is reported as < 300 nM.

From US11427552B2, “Heterocyclic compounds useful in the treatment of disease” (EPIGEN BIOSCIENCES, INC., priority 2013, dated 2022)
